Results taken from US20230416653A1, “ANTIMICROBIAL CLEANING COMPOSITIONS CONTAINING POLYURETHANE SALTED WITH BIS-BIGUANIDE FREE BASE” (Lubrizol Advanced Materials, Inc., priority 2020, published 2023).

Test system: Aspergillus brasiliensis
Assay: Antimicrobial activity on ceramic tiles, visual evaluation of fungal growth
Assay type: cell-based
Settings: 10 = full fungal growth coverage, 0 = complete absence of fungal growth; tiles rinsed with 0.1 wt. % SLS; incubated 7 days at 25° C.
Experimental: A 2 wt. % aqueous dispersion of Polymer 1 salted with 2 wt. % chlorhexidine free base was assayed for antimicrobial activity on ceramic tiles. Control formulations containing Polymer 2 (no acid groups) 2 wt. % aqueous dispersion combined with 2 wt. % chlorhexidine gluconate, chlorhexidine (1 wt. % active material in sterilized deionized water) and benzalkonium chloride (1 wt. % active material in sterilized deionized water) were prepared for comparison. The tiles (Homebase Gloss Mini-Metro wall tiles measuring 7.5 cm×15 cm×0.6 cm thick) were sprayed with the dispersion of the salted Polymer 1 and the control formulations. The treated tiles were dried overnight in a biological control cabinet (Nuaire model no. NU 4005) at 20° C. and 45% RH. The dried tiles were removed from the biological control cabinet and each tile was rinsed with 400 ml of a sterile solution of 0.1 wt. % sodium laurel sulfate in deionized water. A spore suspension of Aspergillus brasiliensis cultured on malt extract agar was prepared in sterilized deionized water (concentration: 1×10^8 cfu/ml) and applied to each tile with a handheld spray bottle (nozzle set on spray position). The treated tiles were placed in the biological cabinet at 20° C. and 45% RH and dried for 30 mins. […] After incubating for 7 days the tiles were removed and visually evaluated for fugal growth.

| Molecule | Fungal Coverage Rating (average of 10 treated tiles) |
| --- | --- |
| N=C(NCCCCCCNC(=N)NC(=N)Nc1ccc(Cl)cc1)NC(=N)Nc1ccc(Cl)cc1 [Control (chlorhexidine), chlorhexidine] | 5 |
| benzalkonium chloride [Control (benzalkonium chloride)] | 6 |
